Data published in publication PMC5218480 (PLoS ONE, 2017).

Tested on: MV-4-11 cells
Test: Gene expression microarray analysis (Affymetrix PrimeView) and GSEA
Format: cell-based, human
Set-up: RFU PODN (11730768_x_at) / Fold change /veh PODN (11730768_x_at) / RFU LINC00158 (11744669_a_at) / Fold change /veh LINC00158 (11744669_a_at) / RFU DUSP10 (11751237_a_at) / Fold change /veh DUSP10 (11751237_a_at) / RFU ID3 (11757404_x_at) / Fold change /veh ID3 (11757404_x_at) / RFU PLEKHG5 (11737974_s_at) / Fold change /veh PLEKHG5 (11737974_s_at) / RFU LRRC4B (11730491_at) / Fold change /veh LRRC4B (11730491_at) / RFU GIMAP4 (11747438_a_at) / Fold change /veh GIMAP4 (11747438_a_at) / RFU KRT8 (11758183_x_at) / Fold change /veh KRT8 (11758183_x_at) / RFU CNN1 (11734310_a_at) / Fold change /veh CNN1 (11734310_a_at) / RFU VPS37D (11726825_at) / Fold change /veh VPS37D (11726825_at) / RFU C10orf10 (11716522_x_at) / Fold change /veh C10orf10 (11716522_x_at) / RFU KIR2DL2 /// KIR2DL4 /// KIR2DL5A /// KIR2DL5B /// KIR2DS1 /// KIR2DS2 /// KIR2DS3 /// KIR2DS4 /// KIR3DL3 /// KIR3DL3 /// KIR3DS1 (11738374_at) / Fold change /veh KIR2DL2 /// KIR2DL4 /// KIR2DL5A /// KIR2DL5B /// KIR2DS1 /// KIR2DS2 /// KIR2DS3 /// KIR2DS4 /// KIR3DL3 /// KIR3DL3 /// KIR3DS1 (11738374_at) / RFU C1QL1 (11718748_at) / Fold change /veh C1QL1 (11718748_at) / RFU TMPRSS4 (11747572_a_at) / Fold change /veh TMPRSS4 (11747572_a_at) / RFU HAMP (11756126_x_at) / Fold change /veh HAMP (11756126_x_at) / RFU RNFT2 (11725882_a_at) / Fold change /veh RNFT2 (11725882_a_at) / RFU NR4A2 (11747474_a_at) / Fold change /veh NR4A2 (11747474_a_at) / RFU ABCC12 (11746883_a_at) / Fold change /veh ABCC12 (11746883_a_at) / RFU TMEM136 (11760407_x_at) / Fold change /veh TMEM136 (11760407_x_at) / RFU CLDN22 /// WWC2 (11732394_at) / Fold change /veh CLDN22 /// WWC2 (11732394_at) / RFU HLA-DPB1 (11760878_x_at) / Fold change /veh HLA-DPB1 (11760878_x_at) / RFU SPINT1 (11716480_a_at) / Fold change /veh SPINT1 (11716480_a_at) / RFU GAP43 (11754022_s_at) / Fold change /veh GAP43 (11754022_s_at) / RFU A4GNT (11735810_at) / Fold change /veh A4GNT (11735810_at) / RFU PRB3 (11715151_x_at) / Fold change /veh PRB3 (11715151_x_at) / RFU TUBB4B (11761932_at) / Fold change /veh TUBB4B (11761932_at) / RFU CAPN14 (11732068_a_at) / Fold change /veh CAPN14 (11732068_a_at) / RFU TMCC2 (11721928_a_at) / Fold change /veh TMCC2 (11721928_a_at) / RFU IRGQ (11745062_a_at) / Fold change /veh IRGQ (11745062_a_at) / RFU FAM174B (11720279_a_at) / Fold change /veh FAM174B (11720279_a_at) / RFU TMPRSS4 (11748680_a_at) / Fold change /veh TMPRSS4 (11748680_a_at) / RFU FAM212B (11763350_a_at) / Fold change /veh FAM212B (11763350_a_at) / RFU PLEKHG5 (11743358_a_at) / Fold change /veh PLEKHG5 (11743358_a_at) / RFU ZSCAN30 (11745921_a_at) / Fold change /veh ZSCAN30 (11745921_a_at) / RFU CMKLR1 (11741424_a_at) / Fold change /veh CMKLR1 (11741424_a_at) / RFU LOC101060620 /// MAPK8IP1 (11723275_at) / Fold change /veh LOC101060620 /// MAPK8IP1 (11723275_at) / RFU SPTSSB (11747773_x_at) / Fold change /veh SPTSSB (11747773_x_at) / RFU PRSS12 (11739890_at) / Fold change /veh PRSS12 (11739890_at) / RFU BIN1 (11741810_x_at) / Fold change /veh BIN1 (11741810_x_at) / RFU WNT11 (11732464_a_at) / Fold change /veh WNT11 (11732464_a_at) / RFU C10orf10 (11716521_a_at) / Fold change /veh C10orf10 (11716521_a_at) / RFU C5orf56 (11738089_at) / Fold change /veh C5orf56 (11738089_at) / RFU CYB561 (11721691_x_at) / Fold change /veh CYB561 (11721691_x_at) / RFU ANKRD19P (11752326_a_at) / Fold change /veh ANKRD19P (11752326_a_at) / RFU OR2T12 /// OR2T33 /// OR2T8 (11738714_s_at) / Fold change /veh OR2T12 /// OR2T33 /// OR2T8 (11738714_s_at) / RFU VCAN (11748164_a_at) / Fold change /veh VCAN (11748164_a_at) / RFU JSRP1 (11732532_at) / Fold change /veh JSRP1 (11732532_at) / RFU KRTAP10-11 (11738290_x_at) / Fold change /veh KRTAP10-11 (11738290_x_at) / RFU MYO3A (11730013_a_at) / Fold change /veh MYO3A (11730013_a_at) / RFU EBF3 (11725865_a_at) / Fold change /veh EBF3 (11725865_a_at) / RFU CAMK2N1 (11719241_x_at) / Fold change /veh CAMK2N1 (11719241_x_at) / RFU C5orf56 (11738088_a_at) / Fold change /veh C5orf56 (11738088_a_at) / RFU OLFML3 (11715873_a_at) / Fold change /veh OLFML3 (11715873_a_at) / RFU LOC100653217 /// NTM (11731650_a_at) / Fold change /veh LOC100653217 /// NTM (11731650_a_at) / RFU MAPK11 (11762145_a_at) / Fold change /veh MAPK11 (11762145_a_at) / RFU FIZ1 (11724087_x_at) / Fold change /veh FIZ1 (11724087_x_at) / RFU OASL (11726364_x_at) / Fold change /veh OASL (11726364_x_at) / RFU SOX15 (11748057_x_at) / Fold change /veh SOX15 (11748057_x_at) / RFU CD79A (11719716_a_at) / Fold change /veh CD79A (11719716_a_at) / RFU HIST1H1D (11736915_at) / Fold change /veh HIST1H1D (11736915_at) / RFU CASKIN2 (11723855_a_at) / Fold change /veh CASKIN2 (11723855_a_at) / RFU LOC730098 (11760151_x_at) / Fold change /veh LOC730098 (11760151_x_at) / RFU OR4N2 (11742367_at) / Fold change /veh OR4N2 (11742367_at) / RFU PRRT2 (11749266_a_at) / Fold change /veh PRRT2 (11749266_a_at) / RFU SNX32 (11753110_a_at) / Fold change /veh SNX32 (11753110_a_at) / RFU CDHR5 (11726645_a_at) / Fold change /veh CDHR5 (11726645_a_at) / RFU RCAN1 (11760418_a_at) / Fold change /veh RCAN1 (11760418_a_at) / RFU FAM167A (11723789_a_at) / Fold change /veh FAM167A (11723789_a_at) / RFU FAM26E (11764081_at) / Fold change /veh FAM26E (11764081_at) / RFU ISYNA1 (11749810_s_at) / Fold change /veh ISYNA1 (11749810_s_at) / RFU ACY1 (11761880_at) / Fold change /veh ACY1 (11761880_at) / RFU 11764098_at / Fold change /veh 11764098_at / RFU SAMD14 (11745864_x_at) / Fold change /veh SAMD14 (11745864_x_at) / RFU NPB (11741838_a_at) / Fold change /veh NPB (11741838_a_at) / RFU TMPRSS6 (11731388_a_at) / Fold change /veh TMPRSS6 (11731388_a_at) / RFU KRTAP10-2 (11738614_at) / Fold change /veh KRTAP10-2 (11738614_at) / RFU ARHGAP8 /// PRR5-ARHGAP8 (11727945_x_at) / Fold change /veh ARHGAP8 /// PRR5-ARHGAP8 (11727945_x_at) / RFU KRTAP5-7 /// NADSYN1 (11734609_at) / Fold change /veh KRTAP5-7 /// NADSYN1 (11734609_at) / RFU RASL12 (11751679_a_at) / Fold change /veh RASL12 (11751679_a_at) / RFU CDKN2B (11736163_a_at) / Fold change /veh CDKN2B (11736163_a_at) / RFU PRF1 (11729649_at) / Fold change /veh PRF1 (11729649_at) / RFU, ZNF638 /// ZNF638-IT1 / Fold change vs veh, ZNF638 /// ZNF638-IT1 / RFU, PANK3 / Fold change vs veh, PANK3 / RFU, SH3YL1 / Fold change vs veh, SH3YL1 / RFU, ZEB2 / Fold change vs veh, ZEB2 / RFU, NRIP1 / Fold change vs veh, NRIP1 / RFU, PTTG1IP / Fold change vs veh, PTTG1IP / RFU, CAPN2 / Fold change vs veh, CAPN2 / RFU, MED14 / Fold change vs veh, MED14 / RFU, SNORA58 / Fold change vs veh, SNORA58 / RFU, C1orf63 / Fold change vs veh, C1orf63 / RFU, LRRFIP1 / Fold change vs veh, LRRFIP1 / RFU, NDUFAF7 / Fold change vs veh, NDUFAF7 / RFU, SLC12A2 / Fold change vs veh, SLC12A2 / RFU, IBTK / Fold change vs veh, IBTK / RFU, ESF1 / Fold change vs veh, ESF1 / Fold change vs veh, TMEM50B / RFU, TAOK1 / Fold change vs veh, TAOK1 / RFU, ACBD3 / Fold change vs veh, ACBD3 / RFU, TMA16 / Fold change vs veh, TMA16 / RFU, RWDD3 / Fold change vs veh, RWDD3 / RFU, BCAT1 / Fold change vs veh, BCAT1 / RFU, EDEM3 / Fold change vs veh, EDEM3 / RFU, TMEM33 / Fold change vs veh, TMEM33 / RFU, WDR75 / Fold change vs veh, WDR75 / RFU, AHCTF1 / Fold change vs veh, AHCTF1 / RFU, TFRC / Fold change vs veh, TFRC / RFU, ZDHHC17 / Fold change vs veh, ZDHHC17 / RFU, NOM1 / Fold change vs veh, NOM1 / RFU, ARL8B / Fold change vs veh, ARL8B / RFU, ZBTB11 / Fold change vs veh, ZBTB11 / RFU, TAMM41 / Fold change vs veh, TAMM41 / RFU, KIAA1704 /// LOC100996395 / Fold change vs veh, KIAA1704 /// LOC100996395 / RFU, ING1 / Fold change vs veh, ING1 / RFU, TRMT61B / Fold change vs veh, TRMT61B / RFU, FUBP3 / Fold change vs veh, FUBP3 / RFU, TP53 / Fold change vs veh, TP53 / RFU, TNKS2 / Fold change vs veh, TNKS2 / RFU, ZFP14 / Fold change vs veh, ZFP14 / RFU, ACTR2 / Fold change vs veh, ACTR2 / RFU, PPP3R1 / Fold change vs veh, PPP3R1 / RFU, PIK3R1 / Fold change vs veh, PIK3R1 / RFU, HNRNPA1 / Fold change vs veh, HNRNPA1 / RFU, RNF170 / Fold change vs veh, RNF170 / RFU, ZNF28 / Fold change vs veh, ZNF28 / RFU, RNGTT / Fold change vs veh, RNGTT / RFU, OGT / Fold change vs veh, OGT / RFU, BRD1 / Fold change vs veh, BRD1 / RFU, MARS / Fold change vs veh, MARS / RFU, ZNF655 / Fold change vs veh, ZNF655 / RFU, FAHD1 / Fold change vs veh, FAHD1 / RFU, BDP1 / Fold change vs veh, BDP1 / RFU, LRRCC1 / Fold change vs veh, LRRCC1 / RFU, ARID1A / Fold change vs veh, ARID1A / RFU, ZNF146 / Fold change vs veh, ZNF146 / RFU, ZNF330 / Fold change vs veh, ZNF330 / RFU, GPN3 / Fold change vs veh, GPN3 / RFU, C9orf123 / Fold change vs veh, C9orf123 / RFU, N4BP2L2 / Fold change vs veh, N4BP2L2 / RFU, ARFIP1 / Fold change vs veh, ARFIP1 / RFU, FAM179B / Fold change vs veh, FAM179B / RFU, BCL10 / Fold change vs veh, BCL10 / RFU, UHRF1BP1L / Fold change vs veh, UHRF1BP1L / RFU, BET1 / Fold change vs veh, BET1 / RFU, CNOT2 / Fold change vs veh, CNOT2 / RFU, ZNF268 / Fold change vs veh, ZNF268 / Fold change vs veh, ZNF507 / RFU, DGCR2 / Fold change vs veh, DGCR2 / RFU, WDSUB1 / Fold change vs veh, WDSUB1 / Fold change vs veh, HSP90B1 /// MIR3652 / RFU, ADSS / Fold change vs veh, ADSS / RFU, GK / Fold change vs veh, GK / RFU, ZNF148 / Fold change vs veh, ZNF148 / RFU, TAF9 / Fold change vs veh, TAF9 / RFU, SLC1A5 / Fold change vs veh, SLC1A5 / RFU, SLMO2 / Fold change vs veh, SLMO2 / RFU, ABCC4 / Fold change vs veh, ABCC4 / RFU, LOC101060439 /// RAP1B / Fold change vs veh, LOC101060439 /// RAP1B / RFU, RFX7 / Fold change vs veh, RFX7 / RFU, GTPBP10 / Fold change vs veh, GTPBP10 / RFU, CNEP1R1 / Fold change vs veh, CNEP1R1 / RFU, BIVM-ERCC5 /// ERCC5 / Fold change vs veh, BIVM-ERCC5 /// ERCC5 / RFU, ILF3 / Fold change vs veh, ILF3 / RFU 11762660_at / Fold change /veh 11762660_at / RFU VCAN (11757783_s_at) / Fold change /veh VCAN (11757783_s_at) / RFU DDX43 (11728927_at) / Fold change /veh DDX43 (11728927_at) / RFU KRT8 (11758188_x_at) / Fold change /veh KRT8 (11758188_x_at) / RFU NKD1 (11759106_at) / Fold change /veh NKD1 (11759106_at) / RFU SRD5A1 (11742802_a_at) / Fold change /veh SRD5A1 (11742802_a_at) / RFU TPSAB1 /// TPSB2 (11721975_s_at) / Fold change /veh TPSAB1 /// TPSB2 (11721975_s_at) / RFU GSTM3 (11746129_a_at) / Fold change /veh GSTM3 (11746129_a_at) / RFU IL23R (11737362_x_at) / Fold change /veh IL23R (11737362_x_at) / RFU TMEM51 (11727254_a_at) / Fold change /veh TMEM51 (11727254_a_at) / RFU PIWIL2 (11732686_x_at) / Fold change /veh PIWIL2 (11732686_x_at) / RFU ORM1 (11744905_x_at) / Fold change /veh ORM1 (11744905_x_at) / RFU CCDC152 (11743942_at) / Fold change /veh CCDC152 (11743942_at) / RFU ECM1 (11717891_a_at) / Fold change /veh ECM1 (11717891_a_at) / RFU IL23R (11748794_a_at) / Fold change /veh IL23R (11748794_a_at) / RFU TNFAIP8L3 (11732012_x_at) / Fold change /veh TNFAIP8L3 (11732012_x_at) / RFU MBOAT4 (11741988_at) / Fold change /veh MBOAT4 (11741988_at) / RFU 11764193_at / Fold change /veh 11764193_at / RFU TMEM53 (11763286_at) / Fold change /veh TMEM53 (11763286_at) / RFU MAGEB2 (11727129_at) / Fold change /veh MAGEB2 (11727129_at) / RFU TMEM200A (11744735_a_at) / Fold change /veh TMEM200A (11744735_a_at) / RFU CCDC152 (11751479_a_at) / Fold change /veh CCDC152 (11751479_a_at) / RFU FAM211A (11726209_a_at) / Fold change /veh FAM211A (11726209_a_at) / RFU RGS16 (11746705_a_at) / Fold change /veh RGS16 (11746705_a_at) / RFU VCAN (11755009_s_at) / Fold change /veh VCAN (11755009_s_at) / RFU RHOB (11743442_s_at) / Fold change /veh RHOB (11743442_s_at) / RFU RGS16 (11720943_a_at) / Fold change /veh RGS16 (11720943_a_at) / RFU RGS16 (11720944_at) / Fold change /veh RGS16 (11720944_at) / RFU, VPS4B / Fold change vs veh, VPS4B / RFU, CREB1 / Fold change vs veh, CREB1 / RFU, DNAJC13 / Fold change vs veh, DNAJC13 / RFU, GNAQ / Fold change vs veh, GNAQ / RFU, CDK5R1 / Fold change vs veh, CDK5R1 / RFU, ZRANB3 / Fold change vs veh, ZRANB3 / RFU, CUL4A / Fold change vs veh, CUL4A / RFU, CCNY / Fold change vs veh, CCNY / RFU, UFL1 / Fold change vs veh, UFL1 / RFU, COG3 / Fold change vs veh, COG3 / RFU, DIAPH2 / Fold change vs veh, DIAPH2 / RFU, SKA2 / Fold change vs veh, SKA2 / RFU, AFF3 / Fold change vs veh, AFF3 / RFU, LMF1 / Fold change vs veh, LMF1 / RFU, IPO11 / Fold change vs veh, IPO11 / RFU, DFFB / Fold change vs veh, DFFB / RFU, FOXP1 / Fold change vs veh, FOXP1 / RFU, CARD8 / Fold change vs veh, CARD8 / RFU, STRN3 / Fold change vs veh, STRN3 / RFU, ADK / Fold change vs veh, ADK / RFU, RASSF2 / Fold change vs veh, RASSF2 / RFU, WIPF1 / Fold change vs veh, WIPF1 / RFU, LARP1B / Fold change vs veh, LARP1B / RFU, RASA1 / Fold change vs veh, RASA1 / RFU, RB1 / Fold change vs veh, RB1 / RFU, PPFIA1 / Fold change vs veh, PPFIA1 / RFU, MAT2A / Fold change vs veh, MAT2A / RFU, CCT5 / Fold change vs veh, CCT5 / RFU, WDR92 / Fold change vs veh, WDR92 / RFU, CUX1 / Fold change vs veh, CUX1 / RFU, TTC7A / Fold change vs veh, TTC7A / RFU, TMEM135 / Fold change vs veh, TMEM135 / RFU, DEPTOR / Fold change vs veh, DEPTOR / RFU, CPM / Fold change vs veh, CPM / RFU, DNAJB6 / Fold change vs veh, DNAJB6 / RFU, CACNA2D3 / Fold change vs veh, CACNA2D3 / RFU, DTX4 / Fold change vs veh, DTX4 / RFU, TFCP2 / Fold change vs veh, TFCP2 / RFU, GMCL1 /// GMCL1P1 / Fold change vs veh, GMCL1 /// GMCL1P1 / RFU, AEBP2 / Fold change vs veh, AEBP2 / RFU, SNHG1 /// SNORD22 /// SNORD25 /// SNORD26 /// SNORD27 /// SNORD28 /// SNORD29 /// SNORD31 / Fold change vs veh, SNHG1 /// SNORD22 /// SNORD25 /// SNORD26 /// SNORD27 /// SNORD28 /// SNORD29 /// SNORD31 / Fold change (Aza/veh), C12orf56 (ProbeSet 11735607_a_at) / Fold change (ACY-1035/veh), C12orf56 (ProbeSet 11735607_a_at) / Fold change (Aza/veh), FGFR1OP (ProbeSet 11751329_s_at) / Fold change (ACY-1035/veh), FGFR1OP (ProbeSet 11751329_s_at) / Fold change (Aza/veh), VPS36 (ProbeSet 11739960_a_at) / Fold change (ACY-1035/veh), VPS36 (ProbeSet 11739960_a_at) / RFU SYPL1 (11715823_x_at) / Fold change /veh SYPL1 (11715823_x_at) / RFU IGFBP7 (11715501_s_at) / Fold change /veh IGFBP7 (11715501_s_at) / RFU REEP3 (11722064_at) / Fold change /veh REEP3 (11722064_at) / RFU IGLL1 (11728026_x_at) / Fold change /veh IGLL1 (11728026_x_at): dose or concentration left out as unconfirmed
Details: ProbeSet 11731461_x_at; LIST D

Nc1ccc(-c2cccs2)cc1NC(=O)c1ccc2c(c1)cc(C1CC1)n2CCN1CCOCC1 [ACY-1035]
RFU, CPM: 131.54 RFU
